In patent US20190343908A1, “Therapeutic Combination for the Treatment of Cancer” (Nerium Biotechnology Inc., priority 2011, published 2019):
Several values for one entry are separate records, joined by “and”; a condition that tells them apart may be missing. Identical values can stand only once.

How the values were obtained:
[1] = system: 22Rv1 (human prostate cancer); test: Sulforhodamine B (SRB) viability assay, 22Rv1; format: cell-based
Text: (§1) Three different viability assays were chosen to complement each other and yielded results dependent on concentration and cell line: the Methyl Tetrazolium dye assay, the Sulforhodamine B fluorescent dye assay, and the Crystal Violet dye assay.
(§2) The Sulforhodamine B and Crystal Violet assays provide information about protein and were used to complement the Methyl-Tetrazolium dye assay. […] It is used for the quantification of cellular proteins of cultured cells. The assay using Crystal Violet, a dye that binds electrostatically to proteins and stains DNA, provides a reliable, simple assay for measuring viability of cells.
(§3) The Methyl Tetrazolium, Sulforhodamine B, and Crystal Violet assays were used to assess cell viabilities. The incubation times were 24 hours, 48 hours, and 72 hours. The Nerium oleander extract Anvirzel™ (a hot water extract of oleander obtained from Salud Integral, Honduras) was tested in concentrations ranging from 0.01 ng/mL to 10 ng/mL.
(§4) Cells were detached by trypsinization (Trypsin-0.25% EDTA, Invitrogen, 25200-072) during the logarithmic phase of culture growth and plated in 96-well plates (18.000 cells/well) (Corning, Costar 359) in a final volume of 200 μl of medium per well. […] The absorbance was measured after 24 hours, 48 hours, and 72 hours of incubation.
(§5) For the Sulforhodamine B assay, 96-well plates were fixed by 10% trichloroacetic acid (Fluka, 91228) and were incubated at 4° C. for 1 hour. Afterwards, plates were rinsed with water and cells were stained with 0.4% Sulforhodamine B (Sigma, 341738), dissolved in 1% acetic acid (Carlo Ebra, 401422) for 15 minutes at room temperature (RT). The unbound stain was washed twice with 1% acetic acid. Finally, 10 mM Tris Buffer pH 10.5 (Sigma, T6791) was added to dissolve the dye.
(§6) The optical density of each plate was measured on a μQuant spectrophotometer and the data were analyzed with Gen5 software (μQuant Biomolecular Spectrophotometer MQX200 and Gen5™ Microplate Data Collection & Analysis software, BioTek® Instruments. Inc, April 2008). Absorbance was measured at 570 nm for all assays and a second wavelength was measured in order to subtract noise. For the Methyl-Tetrazolium assay this second wavelength was 630 nm and for the Sulforhodamine B and Crystal Violet assays it was 690 nm.

[2] = system: COR-L 105 (non-small cell lung carcinoma); test: Methyl-Tetrazolium viability assay, COR-L 105; format: cell-based, human; design: key to MTT Average: absorbance (optical density) at 570 nm, second wavelength subtracted; details: for MTT Average 24 h / MTT Average 48 h / MTT Average 72 h: COR-L 105, Run 3
Text: as §1
The Methyl-Tetrazolium dye assay measures the activity of enzymes in mitochondria. The dye precursor is taken up by cells, where it undergoes reduction to the purple formazan. It measures only the mitochondrial activity and, thus, it is not always a reliable indication of whether the cells themselves are alive or dead, since even a recently dead cell has […] enzyme activity in mitochondria. Intracellular glucose concentration, pH, and time before assay all affect the measurements.
as §3, §4
For the Methyl-Tetrazolium assay, the dye (Sigma, M2128; 5 mg/mL, diluted in phosphate-buffered saline) was added to each well and plates were incubated for 3 hours at 37° C. After the end of the incubation period, the medium was discarded and the cells were rinsed with phosphate-buffered saline. Finally, the formazan crystals were dissolved in dimethylsulphoxide (Sigma, D4540).
as §6

[3] = system: HT55 (colorectal cancer); test: Sulforhodamine B viability assay, HT55; format: cell-based, human; design: key: absorbance (optical density) at 570 nm, second wavelength subtracted
Text: as §1, §2, §3, §4, §5, §6

## N.N.[Cl][Pt][Cl] [cisplatin]
[1]; 22Rv1 Run 1, 0.1 μg/ml CDDP
  SRB 24 h Average: 1.847
  SRB 48 h Average: 1.685
  SRB 72 h Average: 2.018
[1]; 22Rv1 Run 1, 1 μg/ml CDDP
  SRB 24 h Average: 1.943
  SRB 48 h Average: 1.549
  SRB 72 h Average: 1.56
[1]; 22Rv1 Run 1, 10 μg/ml CDDP
  SRB 24 h Average: 1.744
  SRB 48 h Average: 1.217
  SRB 72 h Average: 1.141
[1]; 22Rv1 Run 1, 100 μg/ml CDDP
  SRB 24 h Average: 1.878
  SRB 48 h Average: 1.121
  SRB 72 h Average: 1.204
[1]; 22Rv1 Run 2, 0.1 μg/ml CDDP
  SRB 24 h Average: 1.727
  SRB 48 h Average: 2.139
  SRB 72 h Average: 2.392
[1]; 22Rv1 Run 2, 1 μg/ml CDDP
  SRB 24 h Average: 1.647
  SRB 48 h Average: 1.824
  SRB 72 h Average: 1.395
[1]; 22Rv1 Run 2, 10 μg/ml CDDP
  SRB 24 h Average: 1.49
  SRB 48 h Average: 1.46
  SRB 72 h Average: 1.606
[1]; 22Rv1 Run 2, 100 μg/ml CDDP
  SRB 24 h Average: 1.495
  SRB 48 h Average: 1.621
  SRB 72 h Average: 1.247
[1]; 22Rv1 Run 3, 0.1 μg/ml CDDP
  Average absorbance, SRB 24 h: 1.352 and 0.85
[2]; 0.1 μg/ml CDDP
  MTT Average 24 h: 0.056
  MTT Average 48 h: 0.069
  MTT Average 72 h: 0.088
[2]; 1 μg/ml CDDP
  MTT Average 24 h: 0.02
  MTT Average 48 h: 0.018
  MTT Average 72 h: 0.012
[2]; 10 μg/ml CDDP
  MTT Average 24 h: 0.039
  MTT Average 48 h: 0.023
  MTT Average 72 h: 0.01
[2]; 100 μg/ml CDDP
  MTT Average 24 h: 0.019
  MTT Average 48 h: 0.018
  MTT Average 72 h: 0.009
[2]; Run 1, 24 h, 0.1 μg/ml CDDP
  MTT Average: 0.083
[2]; Run 1, 24 h, 1 μg/ml CDDP
  MTT Average: 0.023
[2]; Run 1, 24 h, 10 μg/ml CDDP
  MTT Average: 0.057
[2]; Run 1, 24 h, 100 μg/ml CDDP
  MTT Average: 0.015
[2]; Run 1, 48 h, 0.1 μg/ml CDDP
  MTT Average: 0.099
[2]; Run 1, 48 h, 1 μg/ml CDDP
  MTT Average: 0.018
[2]; Run 1, 48 h, 10 μg/ml CDDP
  MTT Average: 0.023
[2]; Run 1, 48 h, 100 μg/ml CDDP
  MTT Average: 0.016
[2]; Run 1, 72 h, 0.1 μg/ml CDDP
  MTT Average: 0.056
[2]; Run 1, 72 h, 1 μg/ml CDDP
  MTT Average: 0.017
[2]; Run 1, 72 h, 10 μg/ml CDDP
  MTT Average: 0.021
[2]; Run 1, 72 h, 100 μg/ml CDDP
  MTT Average: 0.018
[2]; Run 2, 24 h, 0.1 μg/ml CDDP
  MTT Average: 0.056
[2]; Run 2, 24 h, 1 μg/ml CDDP
  MTT Average: 0.02
[2]; Run 2, 24 h, 10 μg/ml CDDP
  MTT Average: 0.039
[2]; Run 2, 24 h, 100 μg/ml CDDP
  MTT Average: 0.019
[2]; Run 2, 48 h, 0.1 μg/ml CDDP
  MTT Average: 0.069
[2]; Run 2, 48 h, 1 μg/ml CDDP
  MTT Average: 0.018
[2]; Run 2, 48 h, 10 μg/ml CDDP
  MTT Average: 0.023
[2]; Run 2, 48 h, 100 μg/ml CDDP
  MTT Average: 0.018
[2]; Run 2, 72 h, 0.1 μg/ml CDDP
  MTT Average: 0.088
[2]; Run 2, 72 h, 1 μg/ml CDDP
  MTT Average: 0.012
[2]; Run 2, 72 h, 10 μg/ml CDDP
  MTT Average: 0.01
[2]; Run 2, 72 h, 100 μg/ml CDDP
  MTT Average: 0.009
[3]; HT55, Run 1, 24 h, 0.1 μg/ml CDDP
  SRB Average: 2.17
[3]; HT55, Run 1, 24 h, 1 μg/ml CDDP
  SRB Average: 2.229
[3]; HT55, Run 1, 24 h, 10 μg/ml CDDP
  SRB Average: 2.246
[3]; HT55, Run 1, 24 h, 100 μg/ml CDDP
  SRB Average: 2.052
[3]; HT55, Run 1, 48 h, 0.1 μg/ml CDDP
  SRB Average: 2.437
[3]; HT55, Run 1, 48 h, 1 μg/ml CDDP
  SRB Average: 2.238
[3]; HT55, Run 1, 48 h, 10 μg/ml CDDP
  SRB Average: 2
[3]; HT55, Run 1, 48 h, 100 μg/ml CDDP
  SRB Average: 2.009
[3]; HT55, Run 1, 72 h, 0.1 μg/ml CDDP
  SRB Average: 2.413
[3]; HT55, Run 1, 72 h, 1 μg/ml CDDP
  SRB Average: 2.434
[3]; HT55, Run 1, 72 h, 10 μg/ml CDDP
  SRB Average: 2.222
[3]; HT55, Run 1, 72 h, 100 μg/ml CDDP
  SRB Average: 1.875
[3]; HT55 Run 2, 24 h, 0.1 μg/ml CDDP
  SRB Average: 2.445
[3]; HT55 Run 2, 24 h, 1 μg/ml CDDP
  SRB Average: 2.327
[3]; HT55 Run 2, 24 h, 10 μg/ml CDDP
  SRB Average: 2.387
[3]; HT55 Run 2, 24 h, 100 μg/ml CDDP
  SRB Average: 2.766
[3]; HT55 Run 2, 48 h, 0.1 μg/ml CDDP
  SRB Average: 2.408
[3]; HT55 Run 2, 48 h, 1 μg/ml CDDP
  SRB Average: 2.098
[3]; HT55 Run 2, 48 h, 10 μg/ml CDDP
  SRB Average: 1.814
[3]; HT55 Run 2, 48 h, 100 μg/ml CDDP
  SRB Average: 1.508
[3]; HT55 Run 2, 72 h, 0.1 μg/ml CDDP
  SRB Average: 2.564
[3]; HT55 Run 2, 72 h, 1 μg/ml CDDP
  SRB Average: 1.804
[3]; HT55 Run 2, 72 h, 10 μg/ml CDDP
  SRB Average: 1.74
[3]; HT55 Run 2, 72 h, 100 μg/ml CDDP
  SRB Average: 2.019
[3]; HT55 Run 3, 24 h, 0.1 μg/ml CDDP
  SRB Average: 2.101
[3]; HT55 Run 3, 24 h, 1 μg/ml CDDP
  SRB Average: 1.801
[3]; HT55 Run 3, 24 h, 10 μg/ml CDDP
  SRB Average: 2.557
[3]; HT55 Run 3, 24 h, 100 μg/ml CDDP
  SRB Average: 2.038
[3]; HT55 Run 3, 48 h, 0.1 μg/ml CDDP
  SRB Average: 2.648
[3]; HT55 Run 3, 48 h, 1 μg/ml CDDP
  SRB Average: 2.071
[3]; HT55 Run 3, 48 h, 10 μg/ml CDDP
  SRB Average: 2.649
[3]; HT55 Run 3, 48 h, 100 μg/ml CDDP
  SRB Average: 1.727
[3]; HT55 Run 3, 72 h, 0.1 μg/ml CDDP
  SRB Average: 2.177
[3]; HT55 Run 3, 72 h, 1 μg/ml CDDP
  SRB Average: 1.424
[3]; HT55 Run 3, 72 h, 10 μg/ml CDDP
  SRB Average: 2.784
[3]; HT55 Run 3, 72 h, 100 μg/ml CDDP
  SRB Average: 1.831
